{"source": "patent US6846845B2", "about": "“Heat shock protein inducer” (Eisai Co., Ltd., priority 2002, dated 2005)", "assay_type_in_all_cases": "in vivo, rat", "key": {"[1]": {"test_system": "isolated perfused heart", "assay": "Isolated perfused heart experiments (Langendorff, no-flow global ischemia/reperfusion), Example 1", "settings": "for amount of creatine kinase (CK) released during reperfusion versus Control Group: 30 min reperfusion, FIG. 6", "description": "As mentioned above, 24 hours after administration of 200 mg/kg of GGA or the vehicle, rats were heparinized (500 IU/kg, i.p.) and anesthetized with pentobarbital (50 mg/kg, i.p.).\nEach heart was isolated and reperfused using the Langendorff method with Krebs-Henseleit buffer (pH 7.4, [in mM] 118 NaCl, 4.7 KCl, 2.5 CaCl2, 1.2 MgSO4, 1.2 KH2PO4, 25.0 Na2HCO3, 11.0 glucose) equilibrated with a 95% O2, 5% CO2 gas mixture at 36.5° C., 75 mmHg (1.0×10^4 Pa).\nA water-filled latex balloon was inserted through the mitral orifice into the left ventricle, and the left ventricular end diastolic pressure (LVEDP) was adjusted to 0-5 mmHg (0-667 Pa). During the first 10 minutes of constant pressure reperfusion, the perfusion flow rate was determined for each heart, and the hearts were then perfused at a determined perfusion rate using a microtube pump, during which time each heart was covered with water-jacketed glassware and humidity was maintained at 90% or more.\nNormothermic no-flow global ischemia was performed for 20, 40 and 60 minutes, followed by reperfusion for 30 minutes. The coronary effluent from the 30-minute reperfusion period was collected for measurement of released creatine kinase (CK). The ratio of released CK to heart weight was analyzed by unpaired t-test.\nThe peak position and negative first derivaties of left ventricular pressure (dP/dt max and dP/dt min) were monitored using a pressure transducer. Left ventricular developed pressure (LVDP) was defined as the difference between left ventricular systolic and diastolic pressure. Coronary perfusion pressure (CPP) was calculated as the hydraulic pressure measured at the level of aortic cannulation. Changes in LVDP, CPP and dP/dt were analyzed by two-way analysis of variance (ANOVA), followed by the Bonferroni/Dunn test.\nThe LVDP, CPP and electrocardiogram were continuously recorded on a polygraph recorder (WS-681G, Nihon Koden, Tokyo), and stored on a PCM data recorder (RD-111T, TEAC, Tokyo) for later analysis."}, "[2]": {"assay": "Observation of abnormalities (side-effects) during oral administration", "settings": "rats, oral 50, 100, 200 and 400 mg/kg", "description": "An emulsion of 100% by weight of geranylgeranylacetone (GGA) with 5% by weight of gum arabic and 0.008% by weight of tocopherol was given orally to the rats described above. The oral dosages were 50 mg/kg, 100 mg/kg, 200 mg/kg and 400 mg/kg (GGA groups). […] The vehicle was administered orally to the Control Group."}, "[3]": {"test_system": "HSP70", "assay": "Effect of chelerythrine pretreatment on GGA-induced HSP70 expression in the heart (Western immunoblotting), Example 2", "settings": "24 h after GGA 200 mg/kg oral or vehicle; chelerythrine 5 mg/kg i.v. pretreatment, FIG. 8", "description": "Male Sprague-Dawley rats (220-250 g) were used. GGA, as an emulsion with 5% gum arabic and 0.008% tocopherol, was given orally at a dose of 200 mg/kg. Rats were classified into 4 groups. FIG. 7 is a diagrammatic representation of experimental protocol. […] Twenty-four hours after oral administration of GGA or vehicle, rats were anesthetized (sodium pentobarbital, 50 mg/kg IP) and heparinized (500 IU/kg IP). Hearts were excised, immediately frozen in liquid nitrogen, and stored at −70° C. until use for Western blot analysis (n=4 for each group). […]\nTo analyze the expression of HSP70, the frozen heart samples were homogenized with SDS sample buffer (pH 6.8, 20% glycerol, 6% SDS, 0.12M Tris), centrifuged and boiled (Maloyan A, Palmon A, Horowitz M. Heat acclimation increases the basal HSP70 level and alters its production dynamics during heat stress. Am J Physiol. 1999; 276:R1506-R1515.). […] The total protein concentration of heart was quantified by the Bradford method (Bradford MM. A rapid and sensitive method for quantitation of microgram quantities of protein utilizing the principle of protein-dye binding. Anal. Biochem. 1976;72:248-254). […] The proteins were detected by ECL with exposure to Hyperfilm (Amersham Pharmacia). The amount of protein on the immunoblots was quantified using National Institutes of Health image software. […]"}}}
{"smiles": "CC(=O)CCC=C(C)CCC=C(C)CCC=C(C)CCC=C(C)C", "note": "[GGA, 6, 10, 14, 18-tetramethyl-5,9, 13, 17-nonadecatetraen-2-one]", "values": [{"measurement": "LVDP and dP/dt during reperfusion versus Control Group", "setting": "[1]; 24 h after oral 200 mg/kg, printed 'after about 20-40 minutes of reperfusion', FIG. 5", "result": "remarkably better"}, {"measurement": "functional recovery (LVDP, dP/dt) versus Control Group", "setting": "[1]; 24 h after oral 200 mg/kg, printed 'after about 60 minutes of reperfusion', FIG. 5", "result": "no great difference"}, {"measurement": "amount of creatine kinase (CK) released during reperfusion versus Control Group", "setting": "[1]; ischemic period 20 or 40 minutes", "result": "much less"}, {"measurement": "amount of creatine kinase (CK) released during reperfusion versus Control Group", "setting": "[1]; ischemic period 60 minutes", "result": "no great difference"}, {"measurement": "abnormalities (side-effects) during administration", "setting": "[2]", "result": "No particular abnormalities (side-effects) were observed"}, {"measurement": "HSP70 expression in the heart (relative density to control group)", "setting": "[3]", "result": "increased"}]}
